Experiments:
[1] = biological target: T1, GABA-A receptor; anion channel (Rattus norvegicus) (UniProt O09028+P15431+P18506+P18508+P19969+P20236+P23574+P23576+P28471+P28473+P30191+P62813+P63079+P63138+Q91ZM7+Q9ES14); settings: Membrane, 0.01 uM
Description: Percent displacement of [3H]GABA at Gamma-aminobutyric acid receptor of rat brain membranes at 0.01 uM

[2] = biological target: GABA transporter (Rattus norvegicus) (UniProt P31647+P23978+P31646+P48056); experiment: Percent inhibition of high affinity [3H]GABA uptake into rat brain synaptosomes at 100 uM; type: functional, subcellular
[3] = biological target: T1, GABA-A receptor; anion channel (Rattus norvegicus); experiment: Percent displacement of [3H]GABA at Gamma-aminobutyric acid receptor of rat brain membranes at 100 uM; type: cell membranes; settings: Membrane

GABA transporter (Rattus norvegicus), sequence (P31646 whole entry, looked up): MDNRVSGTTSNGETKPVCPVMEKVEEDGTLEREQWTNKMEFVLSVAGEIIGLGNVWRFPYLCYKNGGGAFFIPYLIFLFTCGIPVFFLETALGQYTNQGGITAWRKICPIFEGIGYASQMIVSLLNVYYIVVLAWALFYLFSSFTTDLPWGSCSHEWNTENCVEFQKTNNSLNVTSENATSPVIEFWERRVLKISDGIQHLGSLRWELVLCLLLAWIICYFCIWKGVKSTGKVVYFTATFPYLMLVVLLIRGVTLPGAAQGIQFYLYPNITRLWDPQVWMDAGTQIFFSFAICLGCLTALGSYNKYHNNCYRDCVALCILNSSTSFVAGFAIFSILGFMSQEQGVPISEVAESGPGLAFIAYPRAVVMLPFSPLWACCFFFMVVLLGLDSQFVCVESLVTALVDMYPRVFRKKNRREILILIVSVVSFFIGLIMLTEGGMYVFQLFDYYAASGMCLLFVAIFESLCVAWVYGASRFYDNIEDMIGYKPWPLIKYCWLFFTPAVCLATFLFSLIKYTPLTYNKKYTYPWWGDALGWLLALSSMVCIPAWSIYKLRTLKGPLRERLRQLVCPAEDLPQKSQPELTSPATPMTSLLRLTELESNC
GABA transporter (Rattus norvegicus), sequence (P31647 whole entry, looked up): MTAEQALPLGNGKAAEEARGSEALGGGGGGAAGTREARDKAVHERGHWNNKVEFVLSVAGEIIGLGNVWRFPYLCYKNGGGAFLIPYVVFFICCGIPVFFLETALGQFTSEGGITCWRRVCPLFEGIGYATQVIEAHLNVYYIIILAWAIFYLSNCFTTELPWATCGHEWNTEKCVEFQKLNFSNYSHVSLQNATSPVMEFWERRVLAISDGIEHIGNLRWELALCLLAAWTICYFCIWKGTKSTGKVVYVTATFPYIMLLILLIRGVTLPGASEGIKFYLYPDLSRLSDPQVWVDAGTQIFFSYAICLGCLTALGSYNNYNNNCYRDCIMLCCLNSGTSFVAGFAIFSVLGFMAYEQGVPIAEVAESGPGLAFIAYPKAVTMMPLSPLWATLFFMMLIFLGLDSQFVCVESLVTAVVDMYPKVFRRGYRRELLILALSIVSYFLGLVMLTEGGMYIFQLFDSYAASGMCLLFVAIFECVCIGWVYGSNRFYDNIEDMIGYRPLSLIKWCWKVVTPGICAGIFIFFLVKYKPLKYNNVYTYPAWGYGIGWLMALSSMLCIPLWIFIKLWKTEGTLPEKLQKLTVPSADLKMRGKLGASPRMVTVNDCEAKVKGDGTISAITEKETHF
GABA transporter (Rattus norvegicus), sequence (P48056 whole entry, looked up): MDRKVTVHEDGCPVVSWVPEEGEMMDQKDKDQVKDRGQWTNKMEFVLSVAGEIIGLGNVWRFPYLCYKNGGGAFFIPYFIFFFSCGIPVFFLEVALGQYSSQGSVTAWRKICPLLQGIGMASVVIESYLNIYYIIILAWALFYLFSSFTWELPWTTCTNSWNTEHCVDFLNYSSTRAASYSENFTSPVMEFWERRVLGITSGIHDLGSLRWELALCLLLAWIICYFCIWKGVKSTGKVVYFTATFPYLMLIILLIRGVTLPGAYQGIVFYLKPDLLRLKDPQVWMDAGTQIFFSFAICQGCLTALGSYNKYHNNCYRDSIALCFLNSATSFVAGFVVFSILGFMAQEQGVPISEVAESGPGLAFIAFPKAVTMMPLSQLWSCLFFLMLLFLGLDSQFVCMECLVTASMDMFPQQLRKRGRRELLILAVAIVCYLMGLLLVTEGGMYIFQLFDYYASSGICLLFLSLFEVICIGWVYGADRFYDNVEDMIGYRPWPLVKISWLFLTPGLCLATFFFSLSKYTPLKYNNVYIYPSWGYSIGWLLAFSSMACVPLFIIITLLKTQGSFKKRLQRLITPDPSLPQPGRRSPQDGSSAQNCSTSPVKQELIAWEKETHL

| SMILES | Displacement [1] [%] | inhibition [2] [%] | Displacement [3] [%] |
| --- | --- | --- | --- |
| NCCCC(=O)O | 48 |  |  |
| NCc1cc(O)no1 | 86 |  |  |
| O=C(O)C1CCCC2NCCCC21 (cis isomer) |  | 20 | 17 |
| O=C(O)C1CCCC2NCCCC21 (stereo in doubt) |  | < 1 | < 5 |
